According to patent publication US5714467A, “Antibacterial and antimalarial hybrid peptides” (The Rockefeller University, priority 1993, dated 1998):
Where no end group is shown, it is not given here.

System: Sheep Red Cells
Experiment: lysis of sheep red blood cells (lysis assay or SRC plate assay)
Assay type: cell-based
Conditions: for concentration lytic to sheep red blood cells: running text; for Lethal concentration, SRC = Sheep Red Cells: Table 3
Description: These values were obtained by either the lysis assay normally used for melittin or by an adaptation of the antibacterial inhibition zone assay of the above-cited Hultmark et al articles to plates with sheep red cells (SRC). With respect to the latter, sterile agarose plates contained 6 ml of medium With 1% agarose, 0.9% NaCl and 10% SRC suspended in Alsevers solution. A dilution series of peptide was applied in 3 mm wells each loaded with 3 μl of the respective samples. The plates were incubated at 30° C. for 24 h, the zones were recorded and LC values calculated as described in the Hultmark et al articles. Clear zones were recorded after a few hours of incubation and the use of such data gave an LC value of the same order as readings after 24 h. This plate assay is faster and more convenient than the lysis assay normally used for melittin.

[1] = Table 2, no incubation footnote
[2] = Table 2, footnote a: incubation overnight at 30° C. as well as at 37° C.

Row | Compound | Lethal concentration, Sheep Red Cells [1] | Lethal concentration, SRC = Sheep Red Cells | also measured
1 | KWKLFKKIGIGAVLKVLT-NH2 [CA(1-8)M(1-10)] | > 600 µM |  | 
2 | CC[C@H](C)[C@H](NC(=O)CNC(=O)[C@H](CCC(N)=O)NC(=O)[C@H](CCC(N)=O)NC(=O)[C@H](CCCNC(=N)N)NC(=O)[C@H](CCCCN)NC(=O)[C@H](CCCNC(=N)N)NC(=O)[C@H](CCCCN)NC(=O)[C@@H](NC(=O)[C@H](Cc1c[nH]c2ccccc12)NC(=O)[C@H](CO)NC(=O)[C@@H](NC(=O)[C@@H](N)CC(C)C)[C@@H](C)CC)[C@@H](C)CC)C(=O)NCC(=O)N[C@@H](C)C(=O)N[C@H](C(=O)N[C@@H](CC(C)C)C(=O)N[C@@H](CCCCN)C(=O)N[C@H](C(=O)N[C@@H](CC(C)C)C(=O)N[C@H](C(=O)N[C@H](C(=O)NCC(=O)N[C@@H](CC(C)C)C(N)=O)[C@@H](C)O)[C@@H](C)O)C(C)C)C(C)C [M(16-26)M(1-13)] |  |  | improvement in red cell lysis concentration over natural melittin (240 μM versus 4-6 μM): 40-60 fold; Lethal concentration, Sheep Red Cells [2]: > 200 µM; concentration lytic to sheep red blood cells: > 240 µM
3 | CC[C@H](C)[C@H](NC(=O)CNC(=O)[C@H](CCC(N)=O)NC(=O)CNC(=O)[C@@H](NC(=O)[C@H](CCCCN)NC(=O)[C@H](CCC(=O)O)NC(=O)[C@@H](NC(=O)[C@H](CCCCN)NC(=O)[C@H](CCCCN)NC(=O)[C@H](Cc1ccccc1)NC(=O)[C@H](CC(C)C)NC(=O)[C@H](CCCCN)NC(=O)[C@H](Cc1c[nH]c2ccccc12)NC(=O)[C@@H](N)CCCCN)[C@@H](C)CC)C(C)C)C(=O)NCC(=O)N[C@@H](C)C(=O)N[C@H](C(=O)N[C@@H](CC(C)C)C(=O)N[C@@H](CCCCN)C(=O)N[C@H](C(=O)N[C@@H](CC(C)C)C(=O)N[C@H](C(=O)N[C@H](C(=O)NCC(=O)N[C@@H](CC(C)C)C(N)=O)[C@@H](C)O)[C@@H](C)O)C(C)C)C(C)C [CA(1-13)M(1-13)] |  |  | Lethal concentration, Sheep Red Cells [2]: > 200 µM; concentration lytic to sheep red blood cells: ≥ 100 µM; concentration lytic to sheep red blood cells (listed as CA(1-13) M(1-13)): greater than 200 μM
4 | CC[C@H](C)[C@H](NC(=O)[C@H](CCC(N)=O)NC(=O)[C@@H](NC(=O)[C@H](C)NC(=O)[C@H](CCC(N)=O)NC(=O)CNC(=O)[C@@H](NC(=O)[C@@H](NC(=O)[C@H](C)NC(=O)[C@@H](NC(=O)[C@H](C)N)C(C)C)C(C)C)C(C)C)[C@@H](C)O)C(=O)N[C@@H](C)C(=O)N[C@@H](CCCCN)C(=O)N[C@@H](CCCCN)C(=O)N[C@@H](Cc1c[nH]c2ccccc12)C(=O)N[C@@H](CCCCN)C(=O)N[C@@H](CC(C)C)C(=O)N[C@@H](Cc1ccccc1)C(=O)N[C@@H](CCCCN)C(=O)N[C@@H](CCCCN)C(=O)N[C@H](C(=O)N[C@@H](CCC(=O)O)C(=O)N[C@@H](CCCCN)C(=O)N[C@H](C(=O)NCC(=O)N[C@@H](CCC(N)=O)C(N)=O)C(C)C)[C@@H](C)CC [CA(25-37)CA(1-13)] |  |  | Lethal concentration, Sheep Red Cells (Table 2, footnote b: incubation overnight at 30° C.): > 300 µM
5 | KWKLFKKIEKVGQNIRDGGIGAVLKV-NH2 [CA(1-18)M(1-8)] |  | 600 µM | 
6 | CC[C@H](C)[C@H](NC(=O)CNC(=O)[C@@H]1CCCN1C(=O)CNC(=O)[C@H](C)NC(=O)[C@H](CCCCN)NC(=O)[C@@H](NC(=O)[C@@H](NC(=O)CNC(=O)[C@H](CC(=O)O)NC(=O)[C@H](CCCNC(=N)N)NC(=O)[C@@H](NC(=O)[C@H](CC(N)=O)NC(=O)[C@H](CCC(N)=O)NC(=O)CNC(=O)[C@@H](NC(=O)[C@H](CCCCN)NC(=O)[C@H](CCC(=O)O)NC(=O)[C@@H](NC(=O)[C@H](CCCCN)NC(=O)[C@H](CCCCN)NC(=O)[C@H](Cc1ccccc1)NC(=O)[C@H](CC(C)C)NC(=O)[C@H](CCCCN)NC(=O)[C@H](Cc1c[nH]c2ccccc12)NC(=O)[C@@H](N)CCCCN)[C@@H](C)CC)C(C)C)[C@@H](C)CC)[C@@H](C)CC)[C@@H](C)CC)C(=O)NCC(=O)N[C@@H](C)C(=O)N[C@H](C(=O)N[C@@H](CC(C)C)C(=O)N[C@@H](CCCCN)C(=O)N[C@H](C(=O)N[C@@H](CC(C)C)C(=O)N[C@H](C(=O)N[C@H](C(=O)NCC(=O)N[C@@H](CC(C)C)C(N)=O)[C@@H](C)O)[C@@H](C)O)C(C)C)C(C)C [CA(1-24)M(1-13)] |  |  | Lethal concentration, Sheep Red Cells [2]: > 200 µM; concentration lytic to sheep red blood cells: ≥ 100 µM
7 | KWKLFKKGAVLKVLT-NH2 [CA(1-7)M(3-10)] | > 600 µM |  | 
8 | KWKLFKKLKVLTTGL-NH2 [CA(1-7)M(6-13)] | > 500 µM |  | 
9 | KWKLFKKIEKVGQNIRDGIGAVLKVL-NH2 [CA(1-17)M(1-9)] |  | 600 µM | 
10 | CC[C@H](C)[C@H](NC(=O)[C@H](CC(C)C)NC(=O)[C@H](C)NC(=O)[C@@H]1CCCN1C(=O)[C@H](CC(C)C)NC(=O)CNC(=O)[C@@H](NC(=O)[C@@H](NC(=O)[C@H](CC(C)C)NC(=O)[C@@H](NC(=O)[C@H](CCCCN)NC(=O)[C@H](CC(C)C)NC(=O)[C@@H](NC(=O)[C@H](C)NC(=O)CNC(=O)[C@@H](NC(=O)CNC(=O)[C@H](CCC(=O)O)NC(=O)[C@@H](NC(=O)[C@H](CCCCN)NC(=O)[C@H](CCCCN)NC(=O)[C@H](Cc1ccccc1)NC(=O)[C@H](CC(C)C)NC(=O)[C@H](CCCCN)NC(=O)[C@H](Cc1c[nH]c2ccccc12)NC(=O)[C@@H](N)CCCCN)[C@@H](C)CC)[C@@H](C)CC)C(C)C)C(C)C)[C@@H](C)O)[C@@H](C)O)C(N)=O [CA(1-9)M(1-17)] |  | 600 µM | 
11 | CC[C@H](C)[C@H](NC(=O)CNC(=O)[C@H](CCCNC(=N)N)NC(=O)CNC(=O)[C@H](CCSC)NC(=O)[C@H](CCCCN)NC(=O)[C@H](CCC(=O)O)NC(=O)[C@@H](NC(=O)[C@H](CCCCN)NC(=O)[C@H](CCCCN)NC(=O)[C@H](Cc1ccccc1)NC(=O)[C@@H](NC(=O)[C@H](CCCCN)NC(=O)[C@H](Cc1c[nH]c2ccccc12)NC(=O)[C@@H](N)CCCCN)C(C)C)[C@@H](C)CC)C(=O)NCC(=O)N[C@@H](C)C(=O)N[C@H](C(=O)N[C@@H](CC(C)C)C(=O)N[C@@H](CCCCN)C(=O)N[C@H](C(=O)N[C@@H](CC(C)C)C(=O)N[C@H](C(=O)N[C@H](C(=O)NCC(=O)N[C@@H](CC(C)C)C(N)=O)[C@@H](C)O)[C@@H](C)O)C(C)C)C(C)C [CB(1-13)M(1-13)] |  | 400 µM | 
12 | KWKLFKKAVLKVLTT-NH2 [CA(1-7)M(4-11)] | > 600 µM |  | 
13 | KWKLFKKVLKVLTTG-NH2 [CA(1-7)M(5-12)] | > 500 µM |  | 
14 | KWKLFKKIGAVLKVL-NH2 [CA(1-7)M(2-9)] | > 600 µM |  | 
15 | KWKLFKKGIGAVLKV-NH2 [CA(1-7)M(1-8)] | > 200 µM |  | 
16 | CC[C@H](C)[C@H](NC(=O)CN)C(=O)NCC(=O)N[C@@H](C)C(=O)N[C@H](C(=O)N[C@@H](CC(C)C)C(=O)N[C@@H](CCCCN)C(=O)N[C@H](C(=O)N[C@@H](CC(C)C)C(=O)N[C@H](C(=O)N[C@H](C(=O)NCC(=O)N[C@@H](CC(C)C)C(=O)N[C@@H](CCCCN)C(=O)N[C@@H](Cc1c[nH]c2ccccc12)C(=O)N[C@@H](CCCCN)C(=O)N[C@@H](CC(C)C)C(=O)N[C@@H](Cc1ccccc1)C(=O)N[C@@H](CCCCN)C(=O)N[C@@H](CCCCN)C(=O)N[C@H](C(=O)N[C@@H](CCC(=O)O)C(=O)N[C@@H](CCCCN)C(=O)N[C@H](C(=O)NCC(=O)N[C@@H](CCC(N)=O)C(=O)N[C@@H](CC(N)=O)C(=O)N[C@H](C(=O)N[C@@H](CCCNC(=N)N)C(=O)N[C@@H](CC(=O)O)C(=O)NCC(=O)N[C@H](C(=O)N[C@H](C(=O)N[C@@H](CCCCN)C(=O)N[C@@H](C)C(N)=O)[C@@H](C)CC)[C@@H](C)CC)[C@@H](C)CC)C(C)C)[C@@H](C)CC)[C@@H](C)O)[C@@H](C)O)C(C)C)C(C)C [M(1-13)CA(1-22)] |  | 40 µM | 
17 | CC[C@H](C)[C@H](NC(=O)CNC(=O)[C@@H](NC(=O)[C@H](CCCCN)NC(=O)[C@H](CCCCN)NC(=O)[C@H](Cc1ccccc1)NC(=O)[C@H](CC(C)C)NC(=O)[C@H](CCCCN)NC(=O)[C@H](Cc1c[nH]c2ccccc12)NC(=O)[C@@H](N)CCCCN)[C@@H](C)CC)C(=O)NCC(=O)N[C@@H](C)C(=O)N[C@H](C(=O)N[C@@H](CC(C)C)C(=O)N[C@@H](CCCCN)C(=O)N[C@H](C(=O)N[C@@H](CC(C)C)C(=O)N[C@H](C(=O)N[C@H](C(=O)NCC(N)=O)[C@@H](C)O)[C@@H](C)O)C(C)C)C(C)C [CA(1-8)M(1-12)] | > 600 µM |  | 
18 | CC[C@H](C)[C@H](NC(=O)CNC(=O)[C@@H](NC(=O)[C@H](CCCCN)NC(=O)[C@H](CCCCN)NC(=O)[C@H](Cc1ccccc1)NC(=O)[C@H](CC(C)C)NC(=O)[C@H](CCCCN)NC(=O)[C@H](Cc1c[nH]c2ccccc12)NC(=O)[C@@H](N)CCCCN)[C@@H](C)CC)C(=O)NCC(=O)N[C@@H](C)C(=O)N[C@H](C(=O)N[C@@H](CC(C)C)C(=O)N[C@@H](CCCCN)C(=O)N[C@H](C(=O)N[C@@H](CC(C)C)C(=O)N[C@H](C(=O)N[C@H](C(=O)NCC(=O)N[C@@H](CC(C)C)C(=O)N1CCC[C@H]1C(=O)N[C@@H](C)C(=O)N[C@@H](CC(C)C)C(=O)N[C@H](C(=O)N[C@@H](CO)C(N)=O)[C@@H](C)CC)[C@@H](C)O)[C@@H](C)O)C(C)C)C(C)C [CA(1-8)M(1-18)] |  | 600 µM | 
19 | CC[C@H](C)[C@H](NC(=O)CN)C(=O)NCC(=O)N[C@@H](C)C(=O)N[C@H](C(=O)N[C@@H](CC(C)C)C(=O)N[C@@H](CCCCN)C(=O)N[C@H](C(=O)N[C@@H](CC(C)C)C(=O)N[C@H](C(=O)N[C@H](C(=O)NCC(=O)N[C@@H](CC(C)C)C(=O)N[C@@H](CCCCN)C(=O)N[C@@H](Cc1c[nH]c2ccccc12)C(=O)N[C@@H](CCCCN)C(=O)N[C@@H](CC(C)C)C(=O)N[C@@H](Cc1ccccc1)C(=O)N[C@@H](CCCCN)C(=O)N[C@@H](CCCCN)C(=O)N[C@H](C(=O)N[C@@H](CCC(=O)O)C(=O)N[C@@H](CCCCN)C(=O)N[C@H](C(=O)NCC(=O)N[C@@H](CCC(N)=O)C(N)=O)C(C)C)[C@@H](C)CC)[C@@H](C)O)[C@@H](C)O)C(C)C)C(C)C [M(1-13)CA(1-13)] | 80 µM | 80 µM | 
